Test results from the NIST ThermoML archive (doi:10.1016/j.jct.2018.09.024).

What was measured:
[1] = 101.33 kPa, Liquid, Laser flash apparatus
[2] = molar heat capacity at constant pressure; conditions: 101.33 kPa, Liquid, DSC

CCCCCCCCCC(=O)OC [methyl decanoate]
Conditions	molar heat capacity at constant pressure, [2] [J/K/mol]	thermal diffusivity, [1] [m2/s]
303.15 K	384.7	8.1e-08
313.15 K	387.6	7.99e-08
323.15 K	391.8	7.87e-08
333.15 K	396.7	7.75e-08
343.15 K	401.9	7.64e-08
353.15 K	407.3	7.52e-08
363.15 K	412.4	7.4e-08
373.15 K	417.2	7.28e-08
383.15 K	–	7.17e-08
393.15 K	–	7.05e-08
403.15 K	–	6.93e-08

CCCCCCCCCCCC(=O)OC [methyl dodecanoate]
Conditions	molar heat capacity at constant pressure, [2] [J/K/mol]	thermal diffusivity, [1] [m2/s]
303.15 K	449	8.27e-08
313.15 K	452.8	8.15e-08
323.15 K	457.4	8.03e-08
333.15 K	462.6	7.91e-08
343.15 K	468.4	7.79e-08
353.15 K	474.5	7.67e-08
363.15 K	480.7	7.55e-08
373.15 K	486.8	7.43e-08
383.15 K	–	7.3e-08
393.15 K	–	7.18e-08
403.15 K	–	7.06e-08
413.15 K	–	6.94e-08
423.15 K	–	6.82e-08

CCCCCCC(=O)OC [methyl heptanoate]
Conditions	molar heat capacity at constant pressure, [2] [J/K/mol]	thermal diffusivity, [1] [m2/s]
303.15 K	289.2	7.82e-08
313.15 K	292.5	7.71e-08
323.15 K	296.2	7.59e-08
333.15 K	300.1	7.48e-08
343.15 K	304.3	7.36e-08
353.15 K	308.6	7.25e-08
363.15 K	312.8	7.14e-08
373.15 K	316.9	–

CCCCCC(=O)OC [methyl hexanoate]
Conditions	molar heat capacity at constant pressure, [2] [J/K/mol]	thermal diffusivity, [1] [m2/s]
303.15 K	246.4	7.76e-08
313.15 K	248.8	7.66e-08
323.15 K	251.5	7.56e-08
333.15 K	254.6	7.46e-08
343.15 K	257.9	–
353.15 K	261.5	–
363.15 K	265.5	–
373.15 K	269.6	–

CCCCCCCCC(=O)OC [methyl nonanoate]
Conditions	molar heat capacity at constant pressure, [2] [J/K/mol]	thermal diffusivity, [1] [m2/s]
303.15 K	351.7	8.01e-08
313.15 K	354.7	7.89e-08
323.15 K	358.6	7.78e-08
333.15 K	363.1	7.66e-08
343.15 K	367.9	7.54e-08
353.15 K	372.8	7.43e-08
363.15 K	377.6	7.31e-08
373.15 K	382	7.19e-08
383.15 K	–	7.08e-08

CCCCCCCC(=O)OC [methyl octanoate]
Conditions	molar heat capacity at constant pressure, [2] [J/K/mol]	thermal diffusivity, [1] [m2/s]
303.15 K	316.6	7.92e-08
313.15 K	320.5	7.81e-08
323.15 K	324.4	7.69e-08
333.15 K	328.7	7.57e-08
343.15 K	333.2	7.46e-08
353.15 K	337.8	7.34e-08
363.15 K	342.8	7.22e-08
373.15 K	347	7.11e-08
383.15 K	–	6.99e-08

CCCCCCCCCCC(=O)OC [methyl undecanoate]
Conditions	molar heat capacity at constant pressure, [2] [J/K/mol]	thermal diffusivity, [1] [m2/s]
303.15 K	411.4	8.22e-08
313.15 K	415.9	8.1e-08
323.15 K	420.9	7.98e-08
333.15 K	426.1	7.86e-08
343.15 K	431.4	7.74e-08
353.15 K	436.7	7.62e-08
363.15 K	441.8	7.5e-08
373.15 K	446.5	7.38e-08
383.15 K	–	7.26e-08
393.15 K	–	7.14e-08
403.15 K	–	7.02e-08
413.15 K	–	6.9e-08
423.15 K	–	6.78e-08
